Key:
CTY145 = conditions: CTY145, after 16 hours of growth
Procedure: (§1) For assaying the effects of copper ions on recombinant yeast strains, wild type and recombinant strains are grown in 5 ml of CSM media on a roller drum incubation apparatus at 30° C. for 18 to 20 hours. Cultures are diluted to an A600(absorbance of light at 600 nm) of about 0.02 in 5 ml CSM media without or with various concentrations of CuSO4 (10 μM, 50 μM, 100 μM, 250 μM, 1 mM and 2 mM) for 18 to 20 hours. The A600 of the various samples is read and recorded.
(§2) The copper sensitivity of yeast strain CTY145 was compared with that of ZMY60 by growing each strain in the presence of increasing amounts of added copper and measuring cell number at increasing times.

ZMY60 = conditions: ZMY60, after 16 hours of growth
Procedure: as §1, §2

ALG7 = conditions: Kukuruzinska et al. 1995; cited from earlier work
[1] = system: copper regulated CHS3 strain; test: Drug sensitivity profiling, 96 well copper sulfate x compound dilution plate; assay type: cell-based, S. cerevisiae; conditions: CHS3 copper regulated control, 48 hours at 37° C.
Procedure: (§3) In one embodiment, such drug sensitivity is analyzed utilizing the copper regulated strains of the invention according to the following non-limiting method. In a single 96 well assay plate, a serial dilution of copper sulfate is created from right to left. On the same plate a serial dilution of compound is created along the opposite axis to give the final compound and copper concentrations shown in FIG. 12. Each well is inoculated with 10^3 cells ml^−1. Growth is scored by eye after 48 hours incubation at 37° C. As the copper concentration is increased, the level of target expressed is reduced. Consequently, inhibition of growth should occur at a lower compound concentration (FIG. 13, panel a). […] (FIG. 13, panel c).
(§4) In a single 96 well assay plate, a serial dilution of copper sulfate was created from right to left. On the same plate a serial dilution of compound was created along the opposite axis to give the final compound and copper concentrations. Each well was inoculated with 10^3 cells/mL. Yeast cell growth was scored by eye after 48 hours incubation at 37° C.
(§5) Plates were setup as described above and inoculated with wild-type, copper regulated ALG7 and copper regulated CHS3 strains. CHS3 encodes chitin synthase and provides a second control. Following 48 hours incubation at 37° C., plates were examined to assess growth (FIG. 16).

wild-type strain = test: as above; assay type: cell-based, S. cerevisiae; conditions: wild type control, 48 hours at 37° C.
Procedure: as §3, §4, §5

[2] = system: copper regulated ALG7 strain; test: as above; assay type: cell-based, S. cerevisiae; conditions: ALG7 copper regulated cells, 48 hours at 37° C., growth scored by eye
Procedure: as §3, §4, §5

[3] = system: ALG7/alg7 heterozygous diploid S. cerevisiae strain; conditions: Giaever et al.; cited from earlier work

Compound | highest concentration of copper at which the growth rate was maintained (CTY145) [mM] | highest concentration of copper at which the log-phase growth rate was maintained unaffected (ZMY60) [μM] | sensitivity to tunicamycin on downregulation of ALG7 expression (ALG7) | sensitivity to compound as the copper concentration was increased [1] | sensitivity to compound as the copper concentration was increased (wild-type strain) | sensitivity to compound as the copper concentration was increased [2] | sensitivity of ALG7/alg7 heterozygous diploid strain [3]
O=S(=O)([O-])[O-].[Cu+2] [copper, copper sulfate] | 1 | 250 | – | – | – | – | –
tunicamycin | – | – | hypersensitivity | No increase in sensitivity | No increase in sensitivity | increased sensitivity | increased sensitivity
